Laboratory results published in PMC5439949, “Structural features of PhoX, one of the phosphate-binding proteins from Pho regulon of Xanthomonas citri” (PLoS ONE, 2017).

How the values were obtained:
PhoX = PhoX (Xanthomonas citri, UniProt A0AAI8ERC0); test: thermal unfolding by CD at […] nm; format: binding; conditions: Tm without to with 30 μM NaH2PO4; 2 μM protein, 10 mM Tris-HCl pH 8.0, 20-95 °C
PstS = PstS (Xanthomonas citri, UniProt A0AAI8ESD8); test: thermal unfolding by CD at […] nm; format: binding; conditions: Tm without to with 30 μM NaH2PO4; 2 μM protein, 10 mM Tris-HCl pH 8.0, 20-95 °C
Chain of PstS (A0AAI8ESD8 entry or part of it): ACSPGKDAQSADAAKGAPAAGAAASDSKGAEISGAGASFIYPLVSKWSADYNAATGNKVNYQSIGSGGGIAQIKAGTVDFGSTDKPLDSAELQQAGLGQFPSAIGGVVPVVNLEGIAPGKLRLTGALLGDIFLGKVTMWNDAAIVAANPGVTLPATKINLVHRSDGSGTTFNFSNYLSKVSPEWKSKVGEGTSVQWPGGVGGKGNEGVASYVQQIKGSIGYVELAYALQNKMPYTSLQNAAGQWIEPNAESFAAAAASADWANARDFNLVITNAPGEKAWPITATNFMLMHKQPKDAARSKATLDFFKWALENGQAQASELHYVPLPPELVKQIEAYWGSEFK

Chain of PhoX (A0AAI8ERC0 entry or part of it): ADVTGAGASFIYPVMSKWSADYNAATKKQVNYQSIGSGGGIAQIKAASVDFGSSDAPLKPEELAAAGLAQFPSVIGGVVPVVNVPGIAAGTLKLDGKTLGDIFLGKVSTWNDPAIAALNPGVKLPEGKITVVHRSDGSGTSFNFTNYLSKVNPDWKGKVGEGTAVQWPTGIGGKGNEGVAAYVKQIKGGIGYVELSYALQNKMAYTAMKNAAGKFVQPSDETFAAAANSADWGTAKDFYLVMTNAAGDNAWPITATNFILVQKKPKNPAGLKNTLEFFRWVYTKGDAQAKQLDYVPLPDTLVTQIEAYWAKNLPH

`O=P(O)(O)O` [phosphate] gave a Tm (PhoX) of 64 to 77 °C and a Tm (PstS) of 71 to 78 °C.
